# Experimental data reported in paper PMC12606247, “Bidirectional communication between nucleotide and substrate binding sites in a type IV multidrug ABC transporter” (Nature Communications, 2025).
# Legend:
# MsbA NBD = MsbA NBD (Escherichia coli, UniProt P60752); assay: 1H, […]-HSQC NMR chemical shift perturbation; type: binding; conditions: 50 mM BisTris pH 7, 50 mM NaCl, 298 K
# BmrA NBD [1] = molecular target: BmrA NBD (Bacillus subtilis, UniProt O06967, R389M); assay: biochemical
# BmrA NBD [2] = molecular target: BmrA NBD (Bacillus subtilis, UniProt O06967, W413F); assay: biochemical
# Chain of BmrA NBD (Bacillus subtilis, UniProt O06967, W413F) (O06967 331-589 W413F): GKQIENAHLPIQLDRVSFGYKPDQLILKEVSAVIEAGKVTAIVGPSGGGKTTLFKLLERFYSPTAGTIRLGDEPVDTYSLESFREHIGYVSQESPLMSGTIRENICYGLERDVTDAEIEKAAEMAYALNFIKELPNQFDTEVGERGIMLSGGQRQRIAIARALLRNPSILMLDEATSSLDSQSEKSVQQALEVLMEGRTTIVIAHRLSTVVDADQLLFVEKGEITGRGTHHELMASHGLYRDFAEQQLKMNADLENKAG
# BmrA NBD [3] = molecular target: BmrA NBD (Bacillus subtilis, UniProt O06967, R389K); assay: biochemical
# Chain of BmrA NBD (Bacillus subtilis, UniProt O06967, R389K) (O06967 331-589 R389K): as the sequence (O06967 331-589 W413F) above, with R59K, F83W counted along it
# BmrA NBD [4] = molecular target: BmrA NBD (Bacillus subtilis, UniProt O06967, K380A); assay: biochemical
# Chain of BmrA NBD (Bacillus subtilis, UniProt O06967, K380A) (O06967 331-589 K380A): as the sequence (O06967 331-589 W413F) above, with K50A, F83W counted along it
# BmrA NBD [5] = molecular target: BmrA NBD (Bacillus subtilis, UniProt O06967, R414K); assay: biochemical
# Chain of BmrA NBD (Bacillus subtilis, UniProt O06967, R414K) (O06967 331-589 R414K): as the sequence (O06967 331-589 W413F) above, with F83W, R84K counted along it
# BmrA NBD [6] = molecular target: T1, BmrA NBD (Bacillus subtilis, UniProt O06967); assay: dissociation constant (method not stated in main text); type: binding; conditions: read-out: KD, ADP
# T1 sequence (O06967 331-589): as the sequence (O06967 331-589 W413F) above, with F83W counted along it
# LmrA NBD = LmrA NBD (Lactococcus cremoris, UniProt P97046); assay: 1H, […]-HSQC NMR chemical shift perturbation; type: binding; conditions: 50 mM BisTris pH 7, 50 mM NaCl, 298 K
# Chain of LmrA NBD (P97046 330-590): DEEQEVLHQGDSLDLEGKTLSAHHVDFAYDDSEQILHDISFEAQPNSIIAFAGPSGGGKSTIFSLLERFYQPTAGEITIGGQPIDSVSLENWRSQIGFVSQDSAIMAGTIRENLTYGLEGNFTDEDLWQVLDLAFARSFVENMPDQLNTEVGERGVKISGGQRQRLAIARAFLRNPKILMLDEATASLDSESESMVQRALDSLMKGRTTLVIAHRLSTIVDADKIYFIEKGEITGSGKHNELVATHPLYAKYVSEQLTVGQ
# BmrA NBD [7] = molecular target: BmrA NBD (Bacillus subtilis, UniProt O06967, R414A); assay: biochemical
# Chain of BmrA NBD (Bacillus subtilis, UniProt O06967, R414A) (O06967 331-589 R414A): as the sequence (O06967 331-589 W413F) above, with F83W, R84A counted along it
# BmrA NBD [8] = molecular target: T1, BmrA NBD; assay: 1H, […]-HSQC NMR chemical shift perturbation; type: binding; conditions: 10 mM ATP, 50 mM BisTris pH 7, 50 mM NaCl, 298 K
# BmrA full-length [9] = molecular target: T2, BmrA full-length (Bacillus subtilis, UniProt O06967); assay: ATPase assay coupled to NADH oxidation (also […] NMR); type: biochemical; conditions: 10 mM MgCl2, pH 8, 37 °C; detergent, nanodiscs or liposomes
# T2 construct: full-length half transporter, C-terminal His6 tag, E. coli C41(DE3); homodimer in DDM/cholate, MSP1E3D1 nanodiscs or inside-out vesicles
# T2 sequence (O06967 whole entry): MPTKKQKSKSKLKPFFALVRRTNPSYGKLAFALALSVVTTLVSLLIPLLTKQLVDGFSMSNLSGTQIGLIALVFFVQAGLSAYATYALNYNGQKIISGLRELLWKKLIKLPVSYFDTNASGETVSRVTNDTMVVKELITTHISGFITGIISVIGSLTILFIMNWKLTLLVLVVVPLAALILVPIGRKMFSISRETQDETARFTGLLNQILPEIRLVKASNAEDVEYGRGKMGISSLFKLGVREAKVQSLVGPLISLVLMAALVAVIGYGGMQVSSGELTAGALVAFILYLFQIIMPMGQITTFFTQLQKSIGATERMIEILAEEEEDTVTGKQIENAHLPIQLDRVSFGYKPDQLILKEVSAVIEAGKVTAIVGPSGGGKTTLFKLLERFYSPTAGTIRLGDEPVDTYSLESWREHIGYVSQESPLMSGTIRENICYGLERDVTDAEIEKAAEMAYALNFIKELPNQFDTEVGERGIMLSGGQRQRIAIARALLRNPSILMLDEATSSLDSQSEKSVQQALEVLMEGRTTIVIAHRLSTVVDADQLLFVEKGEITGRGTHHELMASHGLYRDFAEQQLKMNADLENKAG
# BmrA full-length [10] = molecular target: T2, BmrA full-length; assay: HDX-MS (also fluorescence transport assay in inside-out vesicles); type: binding; conditions: 100 μM doxorubicin, nanodiscs, pD 8.0, 20 °C
# BmrA full-length [11] = molecular target: T2, BmrA full-length; assay: […] NMR of 5-fluorotryptophan-labelled protein (W413 line broadening); type: binding; conditions: 15 mM reserpine, MSP1E3D1 nanodiscs, E. coli polar lipids, 298 K
# Chain of MsbA NBD (P60752 323-582): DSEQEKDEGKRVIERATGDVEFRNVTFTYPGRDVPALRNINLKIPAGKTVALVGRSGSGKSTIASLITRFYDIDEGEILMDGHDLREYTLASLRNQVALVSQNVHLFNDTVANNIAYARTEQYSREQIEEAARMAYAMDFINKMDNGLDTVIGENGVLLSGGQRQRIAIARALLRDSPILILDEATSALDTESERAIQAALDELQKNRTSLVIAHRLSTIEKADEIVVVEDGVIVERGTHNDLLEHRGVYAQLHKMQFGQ
# Chain of BmrA NBD (Bacillus subtilis, UniProt O06967, R389M) (O06967 331-589 R389M): as the sequence (O06967 331-589 W413F) above, with R59M, F83W counted along it
structure (smiles),measurement,setting,value
Nc1ncnc2c1ncn2[C@@H]1O[C@H](COP(=O)(O)OP(=O)(O)O)[C@@H](O)[C@H]1O [ADP],"1H,15N-HSQC NMR chemical shift perturbation",MsbA NBD; 10 mM ADP,"(BmrA W413, LmrA W421, MsbA L415) responded to the addition of ATP or ADP"
same,Kd,BmrA NBD [1],2890 ± 1460 µM
same,Kd,BmrA NBD [2],221 ± 54 µM
same,Kd,BmrA NBD [3],221 ± 105 µM
same,Kd,BmrA NBD [4],14400 ± 3700 µM
same,Kd,BmrA NBD [5],266 ± 97 µM
same,Kd,BmrA NBD [6],214 ± 43 µM
same,"1H,15N-HSQC NMR chemical shift perturbation",LmrA NBD; 10 mM ADP,"(BmrA W413, LmrA W421, MsbA L415) responded to the addition of ATP or ADP"
same,Kd,BmrA NBD [7],575 ± 43.5 µM
Nc1ncnc2c1ncn2[C@@H]1O[C@H](COP(=O)(O)OP(=O)(O)OP(=O)(O)O)[C@@H](O)[C@H]1O [ATP],"1H,15N-HSQC NMR chemical shift perturbation",BmrA NBD [8],"(BmrA W413, LmrA W421, MsbA L415) responded to the addition of ATP or ADP"
same,"1H,15N-HSQC NMR chemical shift perturbation",MsbA NBD; 10 mM ATP,"(BmrA W413, LmrA W421, MsbA L415) responded to the addition of ATP or ADP"
same,ATPase assay coupled to NADH oxidation (also 19F NMR),BmrA full-length [9],"ATPase activity of purified BmrA full-length WT, K380A and hinge mutant constructs was determined"
same,"1H,15N-HSQC NMR chemical shift perturbation",LmrA NBD; 10 mM ATP,"(BmrA W413, LmrA W421, MsbA L415) responded to the addition of ATP or ADP"
COc1cccc2c1C(=O)c1c(O)c3c(c(O)c1C2=O)C[C@@](O)(C(=O)CO)C[C@@H]3O[C@H]1C[C@H](N)[C@H](O)[C@H](C)O1 [doxorubicin],HDX-MS (also fluorescence transport assay in inside-out vesicles),BmrA full-length [10],in the absence and presence of doxorubicin showed decreased exchange in the TMD
COC(=O)[C@H]1[C@H]2C[C@@H]3c4[nH]c5cc(OC)ccc5c4CCN3C[C@H]2C[C@@H](OC(=O)c2cc(OC)c(OC)c(OC)c2)[C@@H]1OC [reserpine],19F NMR of 5-fluorotryptophan-labelled protein (W413 line broadening),BmrA full-length [11],Addition of ATP or the substrate reserpine resulted in changes in chemical shift and linewidths
